Measured values: US12383495B2, “Resident articles for gram-level dosing” (Massachusetts Institute of Technology, priority 2018, dated 2025)
Each block holds one compound with its values, some of them ahead of it.

Columns and labels:
[1] = pig, in vivo
[2] = In vitro drug release from drug-vinylpolysiloxane pills/articles in simulated gastric fluid; format: physicochemical; settings: for in vitro release from drug-VPS pill: SGF, 37° C., up to 28 days
Description: Articles with a series of 30 pills were made so that there was 1 gram of doxycycline hyclate in 2 grams of vinylpolysiloxane. Pills were coated with either cellulose acetate butyrate (CAB) or with Eudragit RS PO. A control with no coatings was also made. The articles were immersed in simulated gastric fluid, and the cumulative release of doxycycline hyclate was measured for more than 26 days. […] Thickness of coatings was tuned by increasing the spray volume. […] Individual pills made of drug-VPS for doxycycline hyclate, isoniazid, ethambutol, pyrazinamide, moxifloxacin were used to evaluate long-term release kinetics in SGF. […] Drug concentrations were then analyzed using a High-Performance Liquid Chromatography (HPLC). […] An Agilent 1260 Infinity II HPLC system (Agilent Technologies, Inc.) equipped with a Model 1260 quaternary pump, Model 1260 High Performance autosampler, Model 1260 thermostat, Model 1260 Infinity Thermostatted Column Compartment control module, and Model 1260 diode array detector was utilized. Data processing and analysis was performed using OpenLab CDS ChemStation (Agilent Technologies, Inc.). All solvents used were purchased from Sigma-Aldrich Corporation. For doxycycline hyclate, chromatographic isocratic separation was carried out on an Agilent 4.6×50 mm AdvanceBio RP-mAb SB-C8 analytical column with 3.5 μm particles, maintained at 55° C. The optimized mobile phase consisted of 20 mM dipotassium phosphate buffer and acetonitrile (pH 6 adjusted with triethylamine) [60:40 (v/v)] at a flow rate of 0.85 mL/min over a 4 min run time. The injection volume was 5 μl, and the selected ultraviolet (UV) detection wavelength was 293 nm.

[3] = In vitro drug release from drug-VPS pills/devices in water; format: physicochemical; settings: 37° C.
Description: Three intact rifampicin devices were fabricated by loading 2 grams of drug into VPS pills. The devices were incubated in 500 mL of nanopure water for up to 26 days in a shaking incubator at 37° C. and 200 rpm, with media exchange at specified time intervals. […] The drug concentrations samples were then measured on an Infinite M200Pro (Tecan) reader (absorbance, 475 nm).

absorption [1]: absorbed rapidly
duration of detectable drug in serum [1]: at least 28 days
duration of sustained drug release (non-zero concentrations in the blood) [1]: at least 7 days
rate of release ([2]; PEG 3350 in matrix, thicker coating of Eudragit NM 30D): slower rate of release
duration of drug release (cumulative release) ([2]; articles of 30 pills, 1 gram drug in 2 grams vinylpolysiloxane, CAB-coated, Eudragit RS PO-coated or uncoated, simulated gastric fluid): more than 26 days
effect of excipient on rate of release ([2]; polyethylene glycol (PEG) 3350 added to drug/siloxane matrix): increase the rate of release
Compound: doxycycline hyclate
burst release ([2]; PEG 3350 in matrix, pills coated with Eudragit RS PO or Eudragit NM 30D): prevented the burst release in the first day
release kinetic profile ([2]; VPS pills coated with Eudragit RS 100, SGF): linear kinetic profile with limited burst release
burst release ([2]; article of 30 pills coated with Eudragit RS PO, simulated gastric fluid, vs uncoated control): prevented the burst release in the first couple days
burst release ([2]; article of 30 pills coated with cellulose acetate butyrate (CAB), simulated gastric fluid, vs uncoated control): prevented the burst release in the first couple days
burst release and release rate ([2]; multi-matrix pill (concentric layers of different drug/matrix concentration)): reducing the burst release and release rate
burst release and release rate ([2]; pills coated with PDMS of different viscosities (750 cst and 25 cst)): blunted the burst release and slowed down the release rate

in vitro release from drug-VPS pill/device [3]: able to release
Compound: NNC(=O)c1ccncc1 [isoniazid]

in vitro release from drug-VPS pill [2]: able to release
Compound: CC[C@@H](CO)NCCN[C@@H](CC)CO [ethambutol]

in vitro release from drug-VPS pill [2]: able to release
Compound: NC(=O)c1cnccn1 [pyrazinamide]

Compound: CO[C@H]1/C=C/O[C@@]2(C)Oc3c(C)c(O)c4c(O)c(c(/C=N/N5CCN(C)CC5)c(O)c4c3C2=O)NC(=O)/C(C)=C\C=C\[C@H](C)[C@H](O)[C@@H](C)[C@@H](O)[C@@H](C)[C@H](OC(C)=O)[C@@H]1C [rifampicin]
duration of detectable serum concentrations [1]: detectable serum concentrations for a week
